Source: patent publication US20100179205A1, “Composition for Enhanced Antiparasitic Activity” (Intervet International B.V., priority 2006, published 2010)

System: Rhipicephalus sanguineus nymphs
Assay: Efficacy against Rhipicephalus sanguineus on infested guinea pigs, topical bath treatment
Assay type: in vivo
Details: for average number of detached ticks per animal (detachment effect): bath treatment, 24 hours after treatment, guinea pigs infested with 100 nymphs; for overall acaricidal efficacy against R. sanguineus-nymphs: compared to the control group; for average number of engorged ticks per animal: engorged ticks dropping from d4 to d8; for average number of dead ticks after detachment: mortality assessed 24 hours after detachment
Procedure: Efficacy against Rhipicephalus sanguineus
Guinea pigs were infested with 100 nymphs of Rhipicephalus sanguineus (d0). Guinea pigs (n=3) were treated topically (bath treatment) with atipamezol (7.8 ppm), amitraz (2.0 ppm; 3.9 ppm) and two combinations of both (7.8 ppm atipamezol+2.0 ppm amitraz; 7.8 ppm atipamezol+3.9 ppm amitraz), respectively (d1). The control group remained untreated.
The number of detached ticks was assessed 1, 3, 6 and 24 hours after treatment (detachment effect).
The mortality of detached ticks was assessed 24 hours after detachment.
The average number of engorged ticks dropping per animal from d4 to d8 was assessed to determine the overall acaricidal efficacy compared to the control group.

Compound	average number of detached ticks per animal (detachment effect) (2.0 ppm amitraz)	overall acaricidal efficacy against R. sanguineus-nymphs (2.0 ppm amitraz)	average number of engorged ticks per animal (2.0 ppm amitraz)	average number of dead ticks after detachment (2.0 ppm amitraz)	average number of detached ticks per animal (detachment effect) (3.9 ppm amitraz)	overall acaricidal efficacy against R. sanguineus-nymphs (3.9 ppm amitraz)	average number of engorged ticks per animal (3.9 ppm amitraz)	average number of dead ticks after detachment (3.9 ppm amitraz)	average number of detached ticks per animal (detachment effect) (7.8 ppm atipamezol)	overall acaricidal efficacy against R. sanguineus-nymphs (7.8 ppm atipamezol)	average number of engorged ticks per animal (7.8 ppm atipamezol)	average number of dead ticks after detachment (7.8 ppm atipamezol)	acaricidal/insecticidal effect (in words) (atipamezole alone)
Cc1ccc(N=CN(C)C=Nc2ccc(C)cc2C)c(C)c1 [amitraz, 1,5-di-(2,4-dimethylphenyl)-3-methyl-1,3,5-triazapenta-1,4-diene]	29.7	84%	8.7	24.3	43.7	100%	0	39.7					
CCC1(c2cnc[nH]2)Cc2ccccc2C1 [atipamezol, 4(5)-(2,3-dihydro-2-ethyl-1H-inden-2-yl)imidazole]									2.0	63%	20.7	1.3	does not show an acaricidal/insecticidal effect
